{"source": "patent US7521454B2", "about": "(Dainippon Sumitomo Pharma Co., Ltd., priority 2001, dated 2009)", "key": {"[1]": {"system": "human peripheral blood mononuclear cells (PBMC)", "assay": "Interferon-inducing activity in human peripheral blood mononuclear cells (PBMC), IFN-α ELISA;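 note: IFN-α in pg/ml with a 1.25 pg/ml detection limit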", "format": "cell-based", "settings": "24 h", "protocol": "Peripheral bloods were sampled from 5 healthy volunteers using a syringe containing heparin, and peripheral blood mononuclear cells (PBMC) were prepared by density gradient centrifugation utilizing the Lymphoprep™ (NYCOMED PHARMA AS). PBMCs were washed twice in serum-free RPMI 1640 medium and adjusted at 1×10^6 cells/ml in RPMI 1640 medium comprising 10% fetal bovine serum. The product was cultured in the presence of a test compound dissolved in dimethyl sulfoxide (final concentration: 0.1%) in an incubator in the presence of 5% CO^2 at 37° C. for 24 hours. As a control, 0.1% dimethyl sulfoxide containing no test compound was used. The culture supernatant was aseptically collected by filtration. Thereafter, the supernatant was cryopreserved at −20° C. or lower until it was subjected to the assay for IFN-inducing activity. Human IFN-α in the culture supernatant was quantified using a highly sensitive ELISA system (Amersham)."}, "[2]": {"system": "IL-4 production", "assay": "Inhibitory activity against Th2 cytokine produced from sensitized spleen cells: IL-4", "format": "cell-based, mouse", "settings": "Mus musculus, 72 h, OVA-sensitized BALB/c spleen cells, 3 days, read-out: Inhibitory activity against IL-4 production", "method_in_brief": "(§1)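 BALB/c mice immunized i.p. with 10 μg ovalbumin on alum, boosted at day 14; spleen cells taken 7 days later. Cells (5×10^6/well) restimulated with ovalbumin 0.5 mg/ml plus test compound, cultured 3 days at 37° C, 5% CO2. Supernatant cytokine quantified by ELISA.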"}, "[3]": {"system": "male cynomolgus monkeys", "assay": "Interferon-inducing activity in cynomolgus monkey (in vivo), serum interferon titer and vomition", "settings": "cynomolgus monkey, in vivo"}, "[4]": {"assay": "Gastrointestinal absorption in rat (drug level in blood by HPLC)", "format": "in vivo", "settings": "blood, dose 3 mg/kg oral, SD male rat", "protocol": "A test compound was suspended in an aqueous solution of 0.5% carboxymethylcellulose, and the resulting suspension was orally administered to an SD male rat. Blood was sampled with the elapse of time, and the level of the drug in blood was assayed by HPLC."}, "[5]": {"assay": "Solubility in citric acid/disodium phosphate buffers", "settings": "thermodynamic from solid", "procedure": "5.53% citric acid (monohydrate) and 1.75% disodium phosphate (anhydrous) were mixed together to prepare buffers (pH 2.5, 5.5, 7.4). A compound was added thereto, the mixture was stirred in a vortex mixer and subjected to ultrasonication for 30 minutes. Thereafter, the resultant was stirred in a vortex mixer again and then centrifuged at 15,000 rpm for 20 minutes. The levels of the compounds in the supernatants were then quantified by HPLC."}, "[6]": {"system": "IL-5 production", "assay": "Inhibitory activity against Th2 cytokine produced from sensitized spleen cells: IL-5", "format": "cell-based, mouse", "settings": "Mus musculus, 72 h, OVA-sensitized BALB/c spleen cells, 3 days, read-out: Inhibitory activity against IL-5 production", "method_in_brief": "as §1"}, "[7]": {"system": "Renca cells", "assay": "Antitumor effect in tumor-bearing mouse model (Renca)", "format": "in vivo", "settings": "Renca in BALB/c mice, 5 times every 4 days", "protocol": "Murine renal adenocarcinoma-derived Renca cells (obtained from Iwate Medical University) were intradermally transplanted to the left ventral portions of 6-week-old BALB/c male mice (Charles River Japan, Inc.) at 5×10^4 cells/0.05 ml/mouse. Their body weights were measured on the next day, and they were divided into 5 groups (each group comprising 6 mice) in such a manner that the average body weights were substantially the same among groups. Vehicles (an aqueous solution of 0.5% carboxymethylcellulose (hereinafter referred to as “CMC-Na”)) and the compound of Example 27 (1 mg/kg and 3 mg/kg) were forcibly administered orally using an oral Sonde (10 ml/kg). Mouse interferon a (hereinafter referred to as “mIFN-α”) was intradermally administered to mice through their backs in amounts of 1×10^4 U/0.1 ml and 5×10^4 U/0.1 ml per mouse. Administration was carried out 5 times every 4 days. The longer diameter (L, mm) and the shorter diameter (W, mm) of the generated tumors were measured twice a week, and the tumor volumes (V, mm^3) were calculated (V=L×W^2). Also, significant difference was examined in accordance with Steel's multiple comparison. […]\nA surveillance period of about 30 days after the transplantation was provided, the tumor volume and the body weight were monitored, and an antitumor effect against the Renca cells was evaluated. […]"}, "[8]": {"system": "rat model of eosinophil leukocytic infiltration", "assay": "Rat model of eosinophil leukocytic infiltration (OVA, bronchoalveolar lavage)", "format": "in vivo", "settings": "2.5 hours before induction, lavage 24 hours after", "protocol": "A rat was immunized intraperitoneally with 1 ml of a solution containing 1 mg of ovalbumin (OVA) and 100 mg of Al(OH)3 on day 0 and day 7. On day 14, a 1% OVA solution was sprayed for 15 minutes using a ultrasonic nebulizer to induce reactions. A test compound was administered intratracheally 2.5 hours before the induction. Bronchoalveolar lavage was performed 24 hours after the induction, and eosinocytes in the wash was stained with Hinkelman to count the number of stained cells. Sensi.−/Challe.+, CMC-Na, and Fluticasone were used as controls. FIG. 1 and the following table show the results."}, "[9]": {"system": "mouse spleen cell", "assay": "cells", "format": "cell-based", "settings": "Mus musculus, 24 h, read-out: Interferon-inducing activity: Minimum effective concentration"}}}
{"compound": "CCCCNc1nc(N)c2nc(O)n(Cc3ccc(C)nc3)c2n1", "note": "[Example 27, 2-Butylamino-8-hydroxy-9-(6-methyl-3-pyridylmethyl)adenine]", "values": [{"measurement": "Interferon-inducing activity (human IFN-α in culture supernatant)", "setting": "[1]; concentration 1 nM", "result": "6 ± 3", "unit": "pg/mL"}, {"measurement": "Interferon-inducing activity (human IFN-α in culture supernatant)", "setting": "[1]; concentration 3 nM", "result": "26 ± 22", "unit": "pg/mL"}, {"measurement": "Interferon-inducing activity (human IFN-α in culture supernatant)", "setting": "[1]; concentration 10 nM", "result": "56 ± 37", "unit": "pg/mL"}, {"measurement": "Interferon-inducing activity (human IFN-α in culture supernatant)", "setting": "[1]; concentration 30 nM", "result": "59 ± 33", "unit": "pg/mL"}, {"measurement": "activity at 0.001 µM", "setting": "[2]; concentration 1 nM", "result": 30, "unit": "%"}, {"measurement": "activity at 0.01 µM", "setting": "[2]; concentration 10 nM", "result": 1, "unit": "%"}, {"measurement": "activity at 0.1 µM", "setting": "[2]; concentration 100 nM", "result": "< 1", "unit": "%"}, {"measurement": "interferon titer in blood serum (average±SE)", "setting": "[3]", "result": "14,488±6365 U/ml"}, {"measurement": "Cmax", "setting": "[4]; read-out: Cmax", "result": 565, "unit": "ng/mL"}, {"measurement": "Tmax", "setting": "[4]; read-out: Tmax", "result": 30, "unit": "min"}, {"measurement": "solubility at 30 min", "setting": "[5]; pH 2.5, aqueous buffer", "result": 610, "unit": "µg/mL"}, {"measurement": "solubility at 30 min", "setting": "[5]; pH 5.5, aqueous buffer", "result": 5, "unit": "µg/mL"}, {"measurement": "solubility at 30 min", "setting": "[5]; pH 7.4, aqueous buffer", "result": 2, "unit": "µg/mL"}, {"measurement": "activity at 0.001 µM", "setting": "[6]; concentration 1 nM", "result": 68, "unit": "%"}, {"measurement": "activity at 0.01 µM", "setting": "[6]; concentration 10 nM", "result": 20, "unit": "%"}, {"measurement": "activity at 0.1 µM", "setting": "[6]; concentration 100 nM", "result": 12, "unit": "%"}, {"measurement": "antitumor effect compared with mIFN-α", "setting": "[7]; 1 and 3 mg/kg oral", "result": "equivalent to or higher than that attained by the administration of mIFN-α"}, {"measurement": "tumor volume compared with the vehicle group", "setting": "[7]; Example 27 1 and 3 mg/kg oral, mIFN-α 1×10^4 and 5×10^4 U intradermal, P<0.05", "result": "significantly smaller"}, {"measurement": "eosinocytes in bronchoalveolar lavage, Average", "setting": "[8]; 0.001 mg/kg intratracheal", "result": "383.85 ×10^4 cells"}, {"measurement": "eosinocytes in bronchoalveolar lavage, Average", "setting": "[8]; 0.01 mg/kg intratracheal", "result": "186.77 ×10^4 cells"}, {"measurement": "eosinocytes in bronchoalveolar lavage, Average", "setting": "[8]; 0.1 mg/kg intratracheal", "result": "46.84 ×10^4 cells"}, {"measurement": "minimal effective concentration", "setting": "[9]", "result": 0.003, "unit": "µM"}]}
